Values quoted from earlier work as cited in patent US10772852B2, “Compositions and methods for combination pharmacological treatments to induce a prolonged, mild decrease in core body temperature” (priority 2015, dated 2020).

How the values were obtained:
[1] = system: mice; conditions: Reilly et al. 2013
[2] = system: women with ovarian cancer; conditions: on average, Kumar et al. (2013)
[3] = Boyle et al. 2013

For `CC(C)c1ccc2oc3nc(N)c(C(=O)O)cc3c(=O)c2c1` [amlexanox], the “effect on obesity, diabetes, and fatty liver” value [1] is listed as “reverse obesity, diabetes, and fatty liver in mice”.
For `CN(C)C(=N)N=C(N)N` [metformin], the “likelihood to survive for 5 years after diagnosis versus women not taking the drug” value [2] is listed as “nearly four times more likely to survive for 5 years”, the “reduction in the risk of cardiovascular events” value ([3]; 29 different studies) is listed as 10% and the “reduction in the risk of MI” value ([3]; nine studies) is listed as 12%. For the same compound, the “reduction in the risk of heart failure” value ([3]; seven studies) was 10%.
